Tests used:
[1] = tested on: canine tendon-to-bone healing; details: cited from earlier work
osteoclasts = details: cited from earlier work
osteoporotic rats = details: cited from earlier work
rat rotator cuff repairs = details: cited from earlier work
osteoporotic mouse model = details: 1.25 mg/kg intravenously; cited from earlier work
mice in space = assay: Bone volume among mice in space (unpublished data); assay type: in vivo; details: 10 mg/kg once per week
fracture healing = details: 1.25 mg/kg systemically once per week; cited from earlier work

Q: With `NCCCC(O)(P(=O)(O)O)P(=O)(O)O` [alendronate] as the molecule, how does the “incidence of suture pull through tendon” value [1] read?
A: lower incidence of suture pull through tendon

Q: What about the “ultimate load to failure” value [1] of the same molecule?
A: improved ultimate load to failure

Q: For `CC(O)(P(=O)(O)O)P(=O)(O)O` [etidronate], which “inhibition of the function of osteoclasts” value (osteoclasts) is on record?
A: do not inhibit the function of osteoclasts

Q: Which rotator cuff healing (osteoporotic rats) does the source give for `O=P(O)(O)C(O)(Cc1cccnc1)P(=O)(O)O` [risedronate] here?
A: beneficial to rotator cuff healing

Q: For `O=P(O)(O)C(O)(Cn1ccnc1)P(=O)(O)O` [zolendronate], which tendon-to-bone healing (rat rotator cuff repairs) is on record?
A: negative effects on tendon-to-bone healing

Q: With methylhydroxyl diphosphonate as the molecule, how does the “inhibition of the function of osteoclasts” value (osteoclasts) read?
A: do not inhibit the function of osteoclasts

B1: rhNELL-1: recombinant human NELL-1 (protein, UniProt Q92832 22-810, looked up)
Protein kinase C-binding …: FGMDPDLQMDIVTELDLVNTTLGVAQVSGMHNASKAFLFQDIEREIHAAPHVSEKLIQLFRNKSEFTILATVQQKPSTSGVILSIRELEHSYFELESSGLRDEIRYHYIHNGKPRTEALPYRMADGQWHKVALSVSASHLLLHVDCNRIYERVIDPPDTNLPPGINLWLGQRNQKHGLFKGIIQDGKIIFMPNGYITQCPNLNHTCPTCSDFLSLVQGIMDLQELLAKMTAKLNYAETRLSQLENCHCEKTCQVSGLLYRDQDSWVDGDHCRNCTCKSGAVECRRMSCPPLNCSPDSLPVHIAGQCCKVCRPKCIYGGKVLAEGQRILTKSCRECRGGVLVKITEMCPPLNCSEKDHILPENQCCRVCRGHNFCAEGPKCGENSECKNWNTKATCECKSGYISVQGDSAYCEDIDECAAKMHYCHANTVCVNLPGLYRCDCVPGYIRVDDFSCTEHDECGSGQHNCDENAICTNTVQGHSCTCKPGYVGNGTICRAFCEEGCRYGGTCVAPNKCVCPSGFTGSHCEKDIDECSEGIIECHNHSRCVNLPGWYHCECRSGFHDDGTYSLSGESCIDIDECALRTHTCWNDSACINLAGGFDCLCPSGPSCSGDCPHEGGLKHNGQVWTLKEDRCSVCSCKDGKIFCRRTACDCQNPSADLFCCPECDTRVTSQCLDQNGHKLYRSGDNWTHSCQQCRCLEGEVDCWPLTCPNLSCEYTAILEGECCPRCVSDPCLADNITYDIRKTCLDSYGVSRLSGSVWTMAGSPCTTCKCKNGRVCCSVDFECLQNN
Q: With B1 as the molecule, how does the bone formation (osteoporotic mouse model) read?
A: lead to bone formation

B2: BP-NELL-1-PEG: NELL-1-PEG covalently bound to BP molecules (conjugate, UniProt Q92832 22-810, looked up)
Protein kinase C-binding …: B1 Protein kinase C-binding …
modifications: PEG; bisphosphonate conjugate
Q: For B2, which bone volume (mice in space) is on record?
A: preserve bone volume

B3: NELL-1-PEG: chemically modified version of NELL-1 protein using polyethylene glycol (PEGylation) (protein, UniProt Q92832 22-810, looked up)
Protein kinase C-binding …: B1 Protein kinase C-binding …
modifications: PEG
Q: Which “ectopic bone formation, radiographically or on organ retrieval analysis” value (fracture healing) does the source give for B3 here?
A: no evidence of ectopic bone formation

Q: What about the fracture healing (fracture healing) of the same molecule?
A: enhance fracture healing

Q: What about the toxicology testing (fracture healing) of the same molecule?
A: no abnormalities detected on toxicology testing
